Consider 17 compounds from patent US20260000676A1, “CHROMAN DERIVATIVES AS ESTROGEN RECEPTOR DEGRADERS” (THE REGENTS OF THE UNIVERSITY OF MICHIGAN, priority 2022, published 2026).

The structures appear in SMILES notation.

One may read the IC50 as the concentration needed to halve the response being measured. One may read the DC50 as the midpoint of the concentration-degradation curve. High values mean a less potent degrader, low ones a more potent degrader. As a reminder, the Dmax is the greatest extent of degradation seen.

One assay concerns the target CRBN/DDB1 (Homo sapiens (Human), UniProt Q96SW2). The assay is described as follows: HTRF binding assay to CRBN/DDB1. Conditions: read-out: CRBN HTRF IC50. Here is the method: The binding potency was determined using HTRF assay technology (Perkin Elmer). Compounds were serially diluted in DMSO and 0.2 μL volume was transferred to white 384-well plate.
Assay [1] deals with T1, ER (Homo sapiens (Human), UniProt P03372). In words: In-cell western (ICW) ER degradation assay in MCF-7 cells. The assay is classed as cell-based. Conditions: MCF7, 16 hrs; for DC50: ER degradation; for Dmax: MCF7, maximal ER degradation.
For assay [2], the target named is T1, ER. In words: In-cell western (ICW) ER degradation assay in T47D cells. The assay is classed as cell-based. The following applies: 16 hrs; for DC50: ER degradation.

CRBN/DDB1, sequence (Q96SW2 whole entry): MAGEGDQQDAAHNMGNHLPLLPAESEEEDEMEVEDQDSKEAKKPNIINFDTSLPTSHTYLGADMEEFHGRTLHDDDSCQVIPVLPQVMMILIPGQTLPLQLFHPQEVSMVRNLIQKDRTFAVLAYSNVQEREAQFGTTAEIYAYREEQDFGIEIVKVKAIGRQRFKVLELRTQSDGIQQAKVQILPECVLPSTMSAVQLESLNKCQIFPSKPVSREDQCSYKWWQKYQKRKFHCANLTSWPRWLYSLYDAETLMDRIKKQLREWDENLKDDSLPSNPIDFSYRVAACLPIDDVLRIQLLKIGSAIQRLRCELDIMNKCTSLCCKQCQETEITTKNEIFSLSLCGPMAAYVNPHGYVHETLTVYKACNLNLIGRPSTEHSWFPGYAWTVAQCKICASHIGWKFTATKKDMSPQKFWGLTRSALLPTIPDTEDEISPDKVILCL
CRBN/DDB1, sequence (Q16531 whole entry partner): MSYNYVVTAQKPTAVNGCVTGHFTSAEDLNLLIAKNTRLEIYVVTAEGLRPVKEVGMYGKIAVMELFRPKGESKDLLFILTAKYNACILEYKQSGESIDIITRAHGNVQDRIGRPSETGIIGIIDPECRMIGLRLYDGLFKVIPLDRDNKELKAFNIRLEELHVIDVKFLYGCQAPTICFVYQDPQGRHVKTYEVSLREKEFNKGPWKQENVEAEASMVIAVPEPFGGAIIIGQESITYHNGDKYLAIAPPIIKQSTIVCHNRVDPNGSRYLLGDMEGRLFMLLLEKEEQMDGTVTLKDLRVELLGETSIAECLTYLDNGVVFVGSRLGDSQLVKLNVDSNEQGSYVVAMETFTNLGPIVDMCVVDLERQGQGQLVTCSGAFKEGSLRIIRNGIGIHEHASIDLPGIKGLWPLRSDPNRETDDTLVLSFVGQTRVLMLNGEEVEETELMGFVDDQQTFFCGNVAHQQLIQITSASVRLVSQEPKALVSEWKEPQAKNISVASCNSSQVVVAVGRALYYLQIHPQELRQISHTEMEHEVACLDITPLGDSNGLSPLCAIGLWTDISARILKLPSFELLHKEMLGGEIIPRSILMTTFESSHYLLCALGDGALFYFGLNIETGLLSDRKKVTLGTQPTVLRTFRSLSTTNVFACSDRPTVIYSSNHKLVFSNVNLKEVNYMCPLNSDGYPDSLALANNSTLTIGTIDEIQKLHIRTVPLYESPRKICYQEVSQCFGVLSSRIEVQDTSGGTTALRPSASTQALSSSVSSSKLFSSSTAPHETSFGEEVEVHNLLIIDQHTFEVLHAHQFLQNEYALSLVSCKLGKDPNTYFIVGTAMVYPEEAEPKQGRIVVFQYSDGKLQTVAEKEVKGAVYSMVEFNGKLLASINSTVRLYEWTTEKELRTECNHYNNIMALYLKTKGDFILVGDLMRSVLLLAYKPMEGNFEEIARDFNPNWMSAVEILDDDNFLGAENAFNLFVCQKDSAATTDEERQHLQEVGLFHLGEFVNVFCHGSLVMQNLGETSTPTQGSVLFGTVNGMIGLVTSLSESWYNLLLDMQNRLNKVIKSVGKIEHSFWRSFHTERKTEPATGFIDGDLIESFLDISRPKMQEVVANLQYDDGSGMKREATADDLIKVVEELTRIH
T1 sequence (P03372 whole entry): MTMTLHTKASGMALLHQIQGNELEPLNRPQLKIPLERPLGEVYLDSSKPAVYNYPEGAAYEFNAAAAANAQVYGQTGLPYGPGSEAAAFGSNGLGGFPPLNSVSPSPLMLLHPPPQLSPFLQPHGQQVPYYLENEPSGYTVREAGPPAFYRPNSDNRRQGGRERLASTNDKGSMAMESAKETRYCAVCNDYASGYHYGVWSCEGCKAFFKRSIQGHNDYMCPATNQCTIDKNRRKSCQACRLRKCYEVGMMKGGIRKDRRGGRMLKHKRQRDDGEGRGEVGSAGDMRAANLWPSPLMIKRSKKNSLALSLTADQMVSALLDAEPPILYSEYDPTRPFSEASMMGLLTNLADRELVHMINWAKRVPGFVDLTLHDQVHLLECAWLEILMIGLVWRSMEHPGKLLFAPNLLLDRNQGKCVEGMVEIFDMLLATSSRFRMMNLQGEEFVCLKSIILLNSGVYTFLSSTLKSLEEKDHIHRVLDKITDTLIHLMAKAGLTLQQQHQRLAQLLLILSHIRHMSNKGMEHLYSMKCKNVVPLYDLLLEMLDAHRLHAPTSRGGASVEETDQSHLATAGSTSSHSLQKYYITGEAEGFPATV

As to `COc1cc(N2CCC(CN3CCN(c4ccc(C(=O)NC5CCC(=O)NC5=O)nc4)CC3)CC2)c(F)cc1[C@H]1c2ccc(O)cc2OC[C@H]1c1ccccc1` (stereo partly drawn) [Compound A109, N-(2,6-dioxopiperidin-3-yl)-5-(4-((1-(2-fluoro-4-((3R,4R)-7-hydroxy-3-phenylchroman-4-yl)-5-methoxyphenyl)piperidin-4-yl)methyl)piperazin-1-yl)picolinamide], the IC50 on CRBN/DDB1 is above 5000 nM. Further, the DC50 was 10 to 100 nM on ER [1] and 1 to 10 nM on ER [2]. Besides, the “MCF7 Dmax %” value at ER [1] (maximal ER degradation) is “C (“C”: 25%-50%)”. For the same compound, the “T47D Dmax %” value on ER [2] (maximal ER degradation) was “C (“C”: 25%-50%)”.
With `O=C1CCC(Nc2ccc(C34CCN(CC5COC6(CCN(c7ccc([C@@H]8c9ccc(O)cc9OC[C@@H]8c8ccccc8)cc7F)CC6)C5)CC3C4(F)F)cc2)C(=O)N1` (stereo partly drawn) [Compound A159, 3-((4-(7,7-difluoro-3-(((R)-8-(2-fluoro-4-((3S,4R)-7-hydroxy-3-phenylchroman-4-yl)phenyl)-1-oxa-8-azaspiro[4.5]decan-3-yl)methyl)-3-azabicyclo[4.1.0]heptan-6-yl)phenyl)amino)piperidine-2,6-dione], on CRBN/DDB1, the IC50 lay in the range of 500 to 5000 nM. The 50% degradation concentration (DC50) on ER [1] and at ER [2] was 1 to 10 nM each time. Besides, the Dmax lay within 25 to 50% at ER [1] and 50 to 75% on ER [2] (maximal ER degradation).
For `O=C1CCC(NC(=O)c2ccc(N3CCN(CC4CCN(c5ccc([C@@H]6c7ccc(O)cc7OC[C@@H]6c6ccccc6)cc5)CC4)CC3)cn2)C(=O)N1` (single isomer, unassigned) [Compound A88], the 50% inhibitory concentration (IC50) on CRBN/DDB1 was above 5000 nM. For the same compound, the DC50 at ER [1] and on ER [2] was 1 to 10 nM in each case. Also, the Dmax on ER [1] and at ER [2] (maximal ER degradation) was 50 to 75% throughout.
Regarding `O=C1CCN(c2ccc(N3CCC4(CC3)CC(CN3CCN(c5ccc([C@@H]6c7ccc(O)cc7OC[C@@H]6c6ccccc6)cc5)CC3)C4)cc2)C(=O)N1` [Compound A112, 1-(4-(2-((4-(4-((3S,4R)-7-hydroxy-3-phenylchroman-4-yl)phenyl)piperazin-1-yl)methyl)-7-azaspiro[3.5]nonan-7-yl)phenyl)dihydropyrimidine-2,4(1H,3H)-dione], the 50% inhibitory concentration (IC50) at CRBN/DDB1 is above 5000 nM. For the same compound, the DC50 at ER [1] is above 100 nM; on ER [2] it was 1 to 10 nM. Moreover, the greatest degradation seen (Dmax) on ER [1] and at ER [2] (maximal ER degradation) was below 25% throughout.
In the case of `CC(C(=O)N1Cc2cc3c(cc2C1)C(=O)N(C1CCC(=O)NC1=O)C3=O)N1CCC2(CCN(c3ccc([C@H]4c5ccc(O)cc5OC[C@H]4c4ccccc4)cc3)CC2)CC1` (single isomer, unassigned) [Compound A57], the half-inhibitory concentration (IC50) at CRBN/DDB1 is above 5000 nM. Besides, the DC50 at ER [1] and on ER [2] was above 100 nM in each case. Further, the Dmax at ER [1] and on ER [2] (maximal ER degradation) was below 25% throughout.
With `COc1cc(C(=O)N[C@@H]2CCC(=O)NC2=O)ncc1N1CCN(CC2CCC3(CC2)CN(c2ccc([C@H]4c5ccc(O)cc5OC[C@H]4c4ccccc4)cc2)C3)CC1` (single isomer, unassigned) [Compound A144], the concentration for half-maximal inhibition (IC50) on CRBN/DDB1 was in the range of 500 to 5000 nM. The DC50 on ER [1] was 10 to 100 nM; at ER [2] it was above 100 nM. The values for the Dmax at ER [1] and on ER [2] (maximal ER degradation) were 25 to 50% and below 25%, respectively.
For `O=C1CC[C@@H](N2Cc3c(ccc4c3OC[C@@H]3CN(C[C@@H]5COC6(CCN(c7ccc([C@H]8c9ccc(O)cc9OC[C@H]8c8ccccc8)cc7F)CC6)C5)CCN43)C2=O)C(=O)N1` [Compound A155, (R)-3-((S)-7-(((R)-8-(2-fluoro-4-((3R,4S)-7-hydroxy-3-phenylchroman-4-yl)phenyl)-1-oxa-8-azaspiro[4.5]decan-3-yl)methyl)-1-oxo-1,3,5,5a,6,7,8,9-octahydro-2H-pyrazino[1′,2′:4,5][1,4]oxazino[2,3-e]isoindol-2-yl)piperidine-2,6-dione], in that order: below 50 nM, above 100 nM, 1 to 10 nM, below 25% and 25 to 50%.
For `COC[C@H](C(=O)N1Cc2cc3c(cc2C1)C(=O)N(C1CCC(=O)NC1=O)C3)N1CCC2(CCN(c3ccc([C@@H]4c5ccc(O)cc5OC[C@@H]4c4ccccc4)cc3)CC2)CC1` (single isomer, unassigned) [Compound A60], in that order: 50 to 500 nM, below 1 nM, 1 to 10 nM, 25 to 50% and below 25%.
For `O=C1CC[C@@H](N2Cc3cc4c(cc3C2=O)OC[C@H]2CN(C[C@@H]3COC5(CCN(c6ccc([C@H]7c8ccc(O)cc8OC[C@H]7c7ccccc7)cc6F)CC5)C3)CCN42)C(=O)N1` [Compound A160, (R)-3-((R)-3-(((R)-8-(2-fluoro-4-((3R,4S)-7-hydroxy-3-phenylchroman-4-yl)phenyl)-1-oxa-8-azaspiro[4.5]decan-3-yl)methyl)-8-oxo-1,2,3,4,4a,5,8,10-octahydro-9H-pyrazino[1′,2′:4,5][1,4]oxazino[2,3-f]isoindol-9-yl)piperidine-2,6-dione], in that order: 500 to 5000 nM, 1 to 10 nM, 1 to 10 nM, below 25% and 25 to 50%.
`O=C1CC[C@@H](N2Cc3c(ccc4c3OC[C@@H]3CN(C[C@H]5COC6(CCN(c7ccc([C@H]8c9ccc(O)cc9OC[C@H]8c8ccccc8)cc7)CC6)C5)CCN43)C2=O)C(=O)N1` [Compound A133, (R)-3-((S)-7-(((S)-8-(4-((3R,4S)-7-hydroxy-3-phenylchroman-4-yl)phenyl)-1-oxa-8-azaspiro[4.5]decan-3-yl)methyl)-1-oxo-1,3,5,5a,6,7,8,9-octahydro-2H-pyrazino[1′,2′:4,5][1,4]oxazino[2,3-e]isoindol-2-yl)piperidine-2,6-dione]: at CRBN/DDB1, the half-maximal inhibitory concentration (IC50) was below 50 nM. Besides, the DC50 at ER [1] is 1 to 10 nM; at ER [2], below 1 nM. Also, the Dmax on ER [1] and on ER [2] (maximal ER degradation) was 25 to 50% in each case.
With `O=C1CC[C@H](NC(=O)c2ccc3c(n2)OC[C@H]2CN(C[C@@H]4COC5(CCN(c6ccc([C@@H]7c8ccc(O)cc8OC[C@@H]7c7ccccc7)cc6)CC5)C4)CCN32)C(=O)N1` [Compound A148, (R)-N-((S)-2,6-dioxopiperidin-3-yl)-3-(((R)-8-(4-((3S,4R)-7-hydroxy-3-phenylchroman-4-yl)phenyl)-1-oxa-8-azaspiro[4.5]decan-3-yl)methyl)-1,2,3,4,4a,5-hexahydropyrazino[1,2-d]pyrido[2,3-b][1,4]oxazine-8-carboxamide], the IC50 on CRBN/DDB1 was 500 to 5000 nM. Further, the DC50 at ER [1] and on ER [2] was below 1 nM each time. In addition, the greatest degradation seen (Dmax) on ER [1] and at ER [2] (maximal ER degradation) was 50 to 75% in each case.
As to `COc1cccc([C@H]2COc3cc(O)ccc3[C@H]2c2ccc(N3CCC(CN4CCN5c6ccc7c(c6OC[C@H]5C4)CN(C4CCC(=O)NC4=O)C7=O)CC3)cc2)c1` (single isomer, unassigned) [Compound A33], the IC50 on CRBN/DDB1 is below 50 nM. The DC50 at ER [1] and on ER [2] was 1 to 10 nM throughout.
As for `O=C1CCC(Nc2ccc(N3CCN(CC4CC5(CCN(c6ccc([C@@H]7c8ccc(O)cc8OC[C@@H]7c7ccccc7)cc6)CC5)C4)CC3)c(F)c2)C(=O)N1` (stereo partly drawn) [Compound A52, 3-((3-fluoro-4-(4-((7-(4-((3S,4R)-7-hydroxy-3-phenylchroman-4-yl)phenyl)-7-azaspiro[3.5]nonan-2-yl)methyl)piperazin-1-yl)phenyl)amino)piperidine-2,6-dione], the IC50 on CRBN/DDB1 lay in the range of 50 to 500 nM. Besides, the DC50 at ER [1] was above 100 nM; on ER [2], below 1 nM. The Dmax at ER [1] is below 25%; at ER [2] (maximal ER degradation), 25 to 50%.
For `COc1cc(N2CCC(CN3CCC4(CC3)COc3c4ccc4c3CN(C3CCC(=O)NC3=O)C4=O)CC2)ccc1[C@H]1c2ccc(O)cc2OC[C@H]1c1ccccc1` (stereo partly drawn) [Compound A135, 3-(1′-((1-(4-((3R,4S)-7-hydroxy-3-phenylchroman-4-yl)-3-methoxyphenyl)piperidin-4-yl)methyl)-6-oxo-6,8-dihydro-2H,7H-spiro[furo[2,3-e]isoindole-3,4′-piperidin]-7-yl)piperidine-2,6-dione], in that order: below 50 nM, below 1 nM, below 1 nM, 25 to 50% and 25 to 50%.
For `COc1cc(N2CCC(CN3CCC4(CC3)COc3cc5c(cc34)CN(C3CCC(=O)NC3=O)C5=O)CC2)ccc1[C@H]1c2ccc(O)cc2OC[C@H]1c1ccccc1` (stereo partly drawn) [Compound A136, 3-(1′-((1-(4-((3R,4S)-7-hydroxy-3-phenylchroman-4-yl)-3-methoxyphenyl)piperidin-4-yl)methyl)-7-oxo-5,7-dihydro-2H,6H-spiro[furo[2,3-f]isoindole-3,4′-piperidin]-6-yl)piperidine-2,6-dione], in that order: below 50 nM, below 1 nM, below 1 nM, 50 to 75% and 50 to 75%.
For `O=C1CCC(Nc2ccc(C3CCN(CC4CCN(c5ccc([C@@H]6c7ccc(O)cc7OC[C@@H]6c6ccccc6)cc5)CC4)CC3)c(F)c2)C(=O)N1` (single isomer, unassigned) [Compound A72], in that order: 50 to 500 nM, above 100 nM, below 1 nM, below 25% and 25 to 50%.
In the case of `O=C1CC[C@H](N2Cc3c(ccc4c3OC[C@H]3CN(C[C@@H]5COC6(CCN(c7ccc([C@@H]8c9ccc(O)cc9OC[C@@H]8c8ccccc8)cc7F)CC6)C5)CCN43)C2=O)C(=O)N1` (single isomer, unassigned) [Compound A157], the IC50 on CRBN/DDB1 was below 50 nM. Moreover, the half-maximal degradation concentration (DC50) at ER [1] and at ER [2] was below 1 nM throughout. Also, the Dmax at ER [1] is 50 to 75%; on ER [2] (maximal ER degradation), at least 75%.
